Reference: patent publication US9321756B2, “Azole compounds as PIM inhibitors” (priority 2011, dated 2016)
Where two headings read alike, the source gives them in different places.

Legend:
[1] = tested on: Pim-2 stably transfected U2OS human osteogenic sarcoma line; assay: Pim cell assay U2OS (phospho-BAD normalized against total BAD), Pim-2 transfected; format: cell-based; conditions: Homo sapiens; U2OS cells, Pim-2 transfected; read-out: U2OS Pim2_Cell_IC50
Procedure: (§1) The cell lines used in the assay were generated by the stable transfection of either Pim-1 or Pim-2 into the U2OS human osteogenic sarcoma line. The assay for determination of the Pim activity in the engineered U2OS cell lines measures levels of phospho-BAD normalized against total BAD protein levels. It was conducted as follows:
(§2) The adherent cells were dissociated from the flasks using non-enzymatic cell dissociation solution (Sigma #C5914). […] The cells were then incubated overnight at 37° C., 5% CO2.
(§3) In addition to the 10-point dosing curve of the test compound, DMSO alone was run as the high control.
(§4) This dilution in DMSO was then diluted again into cell growth medium. Aliquots (12 μL) of the compound diluted in growth medium were then transferred to the appropriate wells of the 96-well plates containing cells to a final DMSO concentration of 0.3%. The cell plates were then incubated with compound for 29 min at 37° C., 5% CO2.
(§5) The cell plates containing lysis buffer were then immediately stored at −70° C.
(§6) These prepared lysates were then assayed for phospho and total BAD according to the manufacturer's protocols (Meso Scale Diagnostics, Cat#K15103C-3 & #K15103D-3). The plates were read on the MSD Sector Imager 6000, and results were calculated according to the assay protocols ((% Phosphoprotein=((2×Phospho signal)/(Phospho signal+Total signal))×100)).

[2] = target: full length recombinant Pim-2 (Homo sapiens (Human), UniProt Q9P1W9); assay: Pim enzyme assay (HTRF, phosphorylation of biotinylated-BAD (S112) peptide), Pim-2; format: biochemical; conditions: Pim-2 enzyme assay; read-out: Pim2_IC50
[3] = target: full length recombinant Pim-3 (Homo sapiens (Human), UniProt Q86V86); assay: Pim enzyme assay (HTRF, phosphorylation of biotinylated-BAD (S112) peptide), Pim-3; format: biochemical; conditions: read-out: Pim3 IC50
In short: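 IC50 values were fitted with a 4-parameter logistic model to percent-of-control HTRF signal (Eu anti-phospho-BAD S112 antibody/streptavidin-APC). Reactions used full-length Pim-3 and biotin-BAD (S112) peptide, ran 1 h 30 min at RT (22 °C) in Hepes pH 7.0 buffer with BSA and DTT, and were stopped by 3 mM EDTA.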

[4] = tested on: Pim-1 stably transfected U2OS human osteogenic sarcoma line; assay: Pim cell assay U2OS (phospho-BAD normalized against total BAD), Pim-1 transfected; format: cell-based; conditions: Homo sapiens
Procedure: as §1, §2, §3, §4, §5, §6

[5] = target: full length recombinant Pim-1 (Homo sapiens (Human), UniProt P11309); assay: Pim enzyme assay (HTRF, phosphorylation of biotinylated-BAD (S112) peptide), Pim-1; format: biochemical; conditions: Pim-1 enzyme assay; read-out: Pim_1_IC50
[6] = U2OS, read-out: U2OS Pim1_Cell_IC50
[7] = U2OS, read-out: U2OS Pim1_Cell_IC50, U2OS cells, Pim-1 transfected

full length recombinant Pim-2, sequence (Q9P1W9 whole entry): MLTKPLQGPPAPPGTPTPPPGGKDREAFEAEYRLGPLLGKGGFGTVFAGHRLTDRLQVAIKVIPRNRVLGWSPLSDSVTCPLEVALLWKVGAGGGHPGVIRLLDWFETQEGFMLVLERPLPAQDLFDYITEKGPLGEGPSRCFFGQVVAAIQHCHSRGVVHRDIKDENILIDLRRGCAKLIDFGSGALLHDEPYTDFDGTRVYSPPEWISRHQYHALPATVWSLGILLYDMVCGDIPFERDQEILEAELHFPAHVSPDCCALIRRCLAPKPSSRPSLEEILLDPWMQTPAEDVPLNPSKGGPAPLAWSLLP
full length recombinant Pim-1, sequence (P11309 whole entry): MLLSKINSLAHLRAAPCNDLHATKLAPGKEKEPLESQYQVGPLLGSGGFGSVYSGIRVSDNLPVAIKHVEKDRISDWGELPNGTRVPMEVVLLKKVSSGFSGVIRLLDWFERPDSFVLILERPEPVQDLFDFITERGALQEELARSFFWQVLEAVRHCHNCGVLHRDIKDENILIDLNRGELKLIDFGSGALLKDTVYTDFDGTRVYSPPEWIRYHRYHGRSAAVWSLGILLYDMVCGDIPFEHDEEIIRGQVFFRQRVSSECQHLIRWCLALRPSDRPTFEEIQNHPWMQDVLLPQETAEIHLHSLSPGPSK

Compound	IC50 [2]	IC50 ([3]; Pim-3 enzyme assay)	IC50 [5]	IC50 [1]	IC50 [4, 6]	IC50 [4, 7]	IC50 [3]	IC50 ([4]; U2OS cells, Pim-1 transfected, read-out: U2OS Pim1_Cell_IC50)
Nc1nnc(-c2ccc3[nH]cc(-c4nccc(N5CCC[C@@H](O)C5)n4)c3c2)o1 (stereo in doubt) [Example 104, 1-(2-(5-(5-amino-1,3,4-oxadiazol-2-yl)-1H-indol-3-yl)-4-pyrimidinyl)-3-piperidinol]	7.73 nM	5.1 nM	11.4 nM	15200 nM	2130 nM			
C[C@H]1CCCCN1c1cccc(-c2c[nH]c3ccc(-c4nnc(N)s4)cc23)n1 (stereo in doubt) [Example 167, 5-(3-(6-(2-methyl-1-piperidinyl)-2-pyridinyl)-1H-indol-5-yl)-1,3,4-thiadiazol-2-amine]	64.4 nM	5.87 nM	19 nM	25000 nM	421 nM			
Nc1nnc(-c2ccc3[nH]cc(-c4nccc(N5CCOCC5)n4)c3c2)s1 [Example 11, 5-(3-(4-morpholinopyrimidin-2-yl)-1H-indol-5-yl)-1,3,4-thiadiazol-2-amine]	8.61 nM	7.69 nM	19.7 nM	2200 nM	911 nM			
Nc1nnc(-c2ccc3[nH]cc(-c4cccc(N5CCOCC5)n4)c3c2)s1 [Example 24, 5-(3-(6-morpholinopyridin-2-yl)-1H-indol-5-yl)-1,3,4-thiadiazol-2-amine]	58.7 nM	5.59 nM		7570 nM		232 nM		
Oc1nnc(-c2ccc3[nH]cc(-c4cccc(N5CCOCC5)n4)c3c2)s1 [Example 29, 5-(3-(6-morpholinopyridin-2-yl)-1H-indol-5-yl)-1,3,4-thiadiazol-2-ol]		28.9 nM	121 nM	> 31600 nM		6860 nM		
CC(C)Oc1cccc(-c2c[nH]c3ccc(-c4nnc(NC5CCCNC5)s4)cc23)n1 (centres unmarked) [Example 32, 5-(3-(6-Isopropoxypyridin-2-yl)-1H-indol-5-yl)-N-(piperidin-3-yl)-1,3,4-thiadiazol-2-amine 2,2,2-trifluoroacetate]				6850 nM		573 nM	3.46 nM	
CC(C)Oc1cccc(-c2c[nH]c3ccc(-c4nnc(N[C@@H]5CCCNC5)s4)cc23)n1 [Example 35, (R)-5-(3-(6-Isopropoxypyridin-2-yl)-1H-indol-5-yl)-N-(piperidin-3-yl)-1,3,4-thiadiazol-2-amine 2,2,2-trifluoroacetate]			9.23 nM	10900 nM		1150 nM	1.84 nM	
Nc1nnc(-c2ccc3[nH]cc(-c4cccc(OC5CCCC5)n4)c3c2)s1 [Example 163, 5-(3-(6-(cyclopentyloxy)-2-pyridinyl)-1H-indol-5-yl)-1,3,4-thiadiazol-2-amine]		4.58 nM	14.7 nM	6900 nM				479 nM
CNc1nnc(-c2ccc3[nH]cc(-c4cccc(OC5CCC5)n4)c3c2)s1 [Example 232, 5-(3-(6-(cyclobutyloxy)-2-pyridinyl)-1H-indol-5-yl)-N-methyl-1,3,4-thiadiazol-2-amine]	104 nM		57 nM	> 31600 nM	1720 nM			
CNc1nnc(-c2ccc3[nH]cc(-c4csc(-n5cnc(C)c5)n4)c3c2)s1 [Example 233, N-methyl-5-(3-(2-(4-methyl-1H-imidazol-1-yl)-1,3-thiazol-4-yl)-1H-indol-5-yl)-1,3,4-thiadiazol-2-amine]		28 nM	100 nM	> 31600 nM		1400 nM		
C[C@H]1COCCN1c1nnc(-c2ccc3[nH]cc(-c4cncc(C5CC5)n4)c3c2)o1 [Example 248, 3-(6-cyclopropyl-2-pyrazinyl)-5-(5-((3S)-3-methyl-4-morpholinyl)-1,3,4-oxadiazol-2-yl)-1H-indole]	20.9 nM		13.9 nM	> 31600 nM		192 nM		
CC(C)Nc1nnc(-c2ccc3[nH]cc(-c4nccc(C(F)(F)F)n4)c3c2)o1 [Example 258, N-(1-methylethyl)-5-(3-(4-(trifluoromethyl)-2-pyrimidinyl)-1H-indol-5-yl)-1,3,4-oxadiazol-2-amine]	25.2 nM		13.7 nM	3720 nM	229 nM			

The next lines start with results.

IC50 [2]	IC50 ([3]; Pim-3 enzyme assay)	IC50 [5]	Compound	IC50 [1]	IC50 [4, 6]	IC50 [4, 7]	IC50 [3]	IC50 ([4]; U2OS cells, Pim-1 transfected, read-out: U2OS Pim1_Cell_IC50)
4.81 nM	1.78 nM	5.5 nM	C[C@H]1CCCN(c2ccnc(-c3c[nH]c4ccc(-c5nnc(N)o5)cc34)n2)C1 (stereo in doubt) [Example 105, 5-(3-(4-(3-methyl-1-piperidinyl)-2-pyrimidinyl)-1H-indol-5-yl)-1,3,4-oxadiazol-2-amine]	920 nM	104 nM			
3.24 nM	3.74 nM	5.98 nM	CN(C)[C@H]1CCCN(c2ccnc(-c3c[nH]c4ccc(-c5nnc(N)o5)cc34)n2)C1 (stereo in doubt) [Example 107, 1-(2-(5-(5-amino-1,3,4-oxadiazol-2-yl)-1H-indol-3-yl)-4-pyrimidinyl)-N,N-dimethyl-3-piperidinamine]	> 31600 nM	3860 nM			
2.06 nM	1.06 nM	0.714 nM	CC1CCCCN1c1cncc(-c2c[nH]c3ccc(-c4nnc(N)o4)cc23)n1 (centres unmarked) [Example 1, 5-(3-(6-(2-methylpiperidin-1-yl)pyrazin-2-yl)-1H-indol-5-yl)-1,3,4-oxadiazol-2-amine]	435 nM		11.9 nM		
	1.08 nM	1.94 nM	Nc1nnc(-c2ccc3[nH]cc(-c4cncc(N5CCC(F)(F)CC5)n4)c3c2)o1 [Example 2, 5-(3-(6-(4,4-difluoropiperidin-1-yl)pyrazin-2-yl)-1H-indol-5-yl)-1,3,4-oxadiazol-2-amine]	419 nM		29.4 nM		
2.19 nM	0.974 nM	5.95 nM	CC1CCCCN1c1ccnc(-c2c[nH]c3ccc(-c4nnc(N)o4)cc23)n1 (centres unmarked) [Example 3, 5-(3-(4-(2-methylpiperidin-1-yl)pyrimidin-2-yl)-1H-indol-5-yl)-1,3,4-oxadiazol-2-amine]	235 nM	54.6 nM			
2 nM	0.586 nM	1.01 nM	Nc1nnc(-c2ccc3[nH]cc(-c4cncc(NC5CCCC5)n4)c3c2)o1 [Example 4, 5-(3-(6-(cyclopentylamino)pyrazin-2-yl)-1H-indol-5-yl)-1,3,4-oxadiazol-2-amine]	342 nM	27 nM			
20.8 nM	5.74 nM	5.91 nM	Nc1nnc(-c2ccc3[nH]cc(-c4cccc(N5CCOCC5)n4)c3c2)o1 [Example 6, 5-(3-(6-morpholinopyridin-2-yl)-1H-indol-5-yl)-1,3,4-oxadiazol-2-amine]	2110 nM		61.9 nM		
	4.97 nM	10.6 nM	Nc1nnc(-c2ccc3[nH]cc(-c4nccc(-c5ccccc5F)n4)c3c2)o1 [Example 123, 5-(3-(4-(2-fluorophenyl)-2-pyrimidinyl)-1H-indol-5-yl)-1,3,4-oxadiazol-2-amine]	1350 nM		147 nM		
	2.98 nM	10.9 nM	Nc1nnc(-c2ccc3[nH]cc(-c4cccc(OC5CCC5)n4)c3c2)s1 [Example 161, 5-(3-(6-(cyclobutyloxy)-2-pyridinyl)-1H-indol-5-yl)-1,3,4-thiadiazol-2-amine]	3480 nM		205 nM		
5.84 nM		3.2 nM	c1cc2[nH]cc(-c3cncc(C4CC4)n3)c2cc1-c1nnc(NC2COC2)o1 [Example 251, 5-(3-(6-cyclopropyl-2-pyrazinyl)-1H-indol-5-yl)-N-3-oxetanyl-1,3,4-oxadiazol-2-amine]	2010 nM	107 nM			
	1.21 nM	7.69 nM	c1cc(C2CC2)nc(-c2c[nH]c3ccc(-c4nnc(NC5COC5)o4)cc23)n1 [Example 256, 5-(3-(4-cyclopropyl-2-pyrimidinyl)-1H-indol-5-yl)-N-3-oxetanyl-1,3,4-oxadiazol-2-amine]	734 nM		68.1 nM		
1.41 nM		1.99 nM	c1cc(C2CC2)nc(-c2c[nH]c3ccc(-c4nnc(NC5CC5)o4)cc23)n1 [Example 257, N-cyclopropyl-5-(3-(4-cyclopropyl-2-pyrimidinyl)-1H-indol-5-yl)-1,3,4-oxadiazol-2-amine]	943 nM	100 nM			
